In ChEMBL document CHEMBL4665632, “Design, synthesis and biological evaluation of pyridone-aminal derivatives as MNK1/2 inhibitors” (Bioorg Med Chem, 2019):
pIC50: −log10 of the molar value. Blank lines part the entries; values can stand above or below the compound they belong to.

Legend:
[1] = molecular target: T1, MAP kinase-interacting serine/threonine-protein kinase 1 (Homo sapiens, UniProt Q9BUB5); assay: (§1) Inhibition of recombinant human N-terminal DYKDDDDK-tagged MNK1(1 to 424 residues) expressed in baculovirus expression system using TATKSGSTTKNR as substrate preincubated for 10 mins followed by ATP addition and measured after 40 mins by luminescence based assay
Target sequence in this assay (Q9BUB5 whole entry, the tested form may be a part): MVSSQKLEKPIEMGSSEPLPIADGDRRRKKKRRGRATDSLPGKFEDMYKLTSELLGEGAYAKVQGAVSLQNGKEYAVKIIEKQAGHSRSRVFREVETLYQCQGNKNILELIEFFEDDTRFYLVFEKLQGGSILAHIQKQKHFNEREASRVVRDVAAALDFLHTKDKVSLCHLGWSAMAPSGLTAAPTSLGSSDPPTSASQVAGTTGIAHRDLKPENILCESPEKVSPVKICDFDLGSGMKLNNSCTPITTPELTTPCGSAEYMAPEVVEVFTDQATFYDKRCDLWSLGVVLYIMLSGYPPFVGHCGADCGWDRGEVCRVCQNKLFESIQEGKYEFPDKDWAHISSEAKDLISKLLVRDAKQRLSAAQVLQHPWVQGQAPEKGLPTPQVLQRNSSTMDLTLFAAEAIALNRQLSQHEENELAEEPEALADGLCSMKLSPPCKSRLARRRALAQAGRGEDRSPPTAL

[2] = molecular target: T2, MAP kinase-interacting serine/threonine-protein kinase 2 (Homo sapiens, UniProt Q9HBH9); assay: Inhibition of MNK2 (unknown origin) at 100 nM incubated for 60 mins by HTRF assay
Target sequence in this assay (Q9HBH9 whole entry, looked up): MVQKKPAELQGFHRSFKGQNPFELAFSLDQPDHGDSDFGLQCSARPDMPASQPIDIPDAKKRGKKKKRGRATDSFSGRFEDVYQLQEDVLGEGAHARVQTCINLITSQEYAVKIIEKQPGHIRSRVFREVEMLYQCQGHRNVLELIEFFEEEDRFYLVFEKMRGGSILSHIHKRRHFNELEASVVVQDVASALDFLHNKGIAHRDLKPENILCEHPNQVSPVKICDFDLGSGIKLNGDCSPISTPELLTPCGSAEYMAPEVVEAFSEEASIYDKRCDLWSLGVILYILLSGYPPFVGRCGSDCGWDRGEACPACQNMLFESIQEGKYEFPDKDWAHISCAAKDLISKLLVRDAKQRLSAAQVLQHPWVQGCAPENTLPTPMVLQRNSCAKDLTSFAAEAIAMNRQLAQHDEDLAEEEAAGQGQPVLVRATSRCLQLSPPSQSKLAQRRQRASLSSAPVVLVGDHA

[3] = molecular target: T1, MAP kinase-interacting serine/threonine-protein kinase 1; assay: Inhibition of MNK1 (unknown origin) at 100 nM incubated for 60 mins by HTRF assay
Target sequence in this assay (Q9BUB5 whole entry, looked up, the tested form may be a part): as the sequence (Q9BUB5 whole entry, the tested form may be a part) above

[4] = molecular target: T2, MAP kinase-interacting serine/threonine-protein kinase 2; assay: (§2) Inhibition of recombinant human N-terminal GST-tagged MNK2 (1 to 465 residues) expressed in baculovirus expression system using TATKSGSTTKNR as substrate preincubated for 10 mins followed by ATP addition and measured after 40 mins by luminescence based assay
Target sequence in this assay (Q9HBH9 whole entry): as the sequence (Q9HBH9 whole entry, looked up) above

TMD8 = assay: Antiproliferative activity against human TMD8 cells assessed as reduction in cell viability incubated for 72 hrs by MTT assay; format: functional, cell-based; conditions: TMD8, 72 h
[5] = Antiproliferative activity against […] cells assessed as reduction in cell viability at 20 uM incubated for 72 hrs by MTT assay relative to control; format: functional, Mus musculus
A549 = assay: Antiproliferative activity against human A549 cells assessed as reduction in cell viability incubated at 20 uM for 72 hrs by MTT assay relative to control; format: functional
MV4-11 = assay: Antiproliferative activity against human MV4-11 cells assessed as reduction in cell viability incubated for 72 hrs by MTT assay; format: functional, cell-based; conditions: MV4-11, 72 h
HCT-116 = assay: Antiproliferative activity against human HCT-116 cells assessed as reduction in cell viability at 20 uM incubated for 72 hrs by MTT assay relative to control; format: functional
MDA-MB-435 = assay: Antiproliferative activity against human MDA-MB-435 cells assessed as reduction in cell viability at 20 uM incubated for 72 hrs by MTT assay relative to control; format: functional
K562 = assay: Antiproliferative activity against human K562 cells assessed as reduction in cell viability incubated for 72 hrs by MTT assay; format: functional, cell-based; conditions: K562, 72 h
[6] = Antitumor activity against […] cells xenografted in BALB/c mouse assessed as tumor growth inhibition at 20 mg/kg, ip administered for 14 days relative to control; format: functional; conditions: 336 h, time 14 day, read-out: TGI
[7] = molecular target: T1, MAP kinase-interacting serine/threonine-protein kinase 1; assay: as §1, with “Potency index, ratio of IC50 of eFT508 to IC50 of compound for inhibition” for “Inhibition”; conditions: time 50.0 min
Target sequence in this assay (Q9BUB5 whole entry, looked up, the tested form may be a part): as the sequence (Q9BUB5 whole entry, the tested form may be a part) above

[8] = molecular target: T2, MAP kinase-interacting serine/threonine-protein kinase 2; assay: as §2, with “Potency index, ratio of IC50 of eFT508 to IC50 of compound for inhibition” for “Inhibition”; conditions: time 50.0 min
Target sequence in this assay (Q9HBH9 whole entry, looked up): as the sequence (Q9HBH9 whole entry, looked up) above

Compound: Cc1cc(Nc2cc(N)ncn2)c(=O)n2c1C(=O)NC21CCCCC1 [TOMIVOSERTIB]
pIC50 (TMD8): 5.60
inhibition at 20 µM [5]: 43.1%
inhibition [2]: 98.8%
inhibition [3]: 87.8%
inhibition at 20 µM (A549): 40.6%
pIC50 (MV4-11): 4.84
inhibition in vivo at 20 mg/kg [6]: 59%
inhibition at 20 µM (HCT-116): 52.7%
inhibition at 20 µM (MDA-MB-435): 49.2%
pIC50 (K562): 4.87

Compound: Cc1cc(Nc2cn(C)nc2C(F)F)c(=O)n2c1C(=O)NC21CCCCC1
pIC50 [1]: < 6.30
inhibition [2]: 14.6%
inhibition [3]: 25.4%
pIC50 [4]: < 6.30

Compound: Cc1cc(Nc2cc(N3CCN(CCN(C)C)CC3)ncn2)c(=O)n2c1C(=O)NC21CCCCC1
Ratio IC50 [7]: 2
Ratio IC50 [8]: 2
pIC50 [1]: 8.06
pIC50 (TMD8): 5.72
inhibition at 20 µM [5]: 40.5%
inhibition [2]: 89%
inhibition [3]: 77.2%
inhibition at 20 µM (A549): 48.4%
pIC50 (MV4-11): 5.02
pIC50 [4]: 8.12
inhibition at 20 µM (HCT-116): 30.5%
inhibition at 20 µM (MDA-MB-435): 35.2%
pIC50 (K562): 4.88

Compound: Cc1cc(Nc2cc(N3CCOCC3)ncn2)c(=O)n2c1C(=O)NC21CCCCC1
pIC50 [1]: < 6.30
inhibition [2]: 35.5%
inhibition [3]: 21.4%
pIC50 [4]: 6.34

Compound: Cc1cc(Nc2cc(N3CCC(N)CC3)ncn2)c(=O)n2c1C(=O)NC21CCCCC1
pIC50 [1]: 6.90
pIC50 (TMD8): 5.00
inhibition at 20 µM [5]: 36.5%
inhibition [2]: 64.3%
inhibition [3]: 62.7%
inhibition at 20 µM (A549): 50.1%
pIC50 (MV4-11): < 4.70
pIC50 [4]: 7.09
inhibition at 20 µM (HCT-116): 46.8%
inhibition at 20 µM (MDA-MB-435): 42%
pIC50 (K562): 4.75

Compound: Cc1cc(Nc2cc(N3CCNCC3)ncn2)c(=O)n2c1C(=O)NC21CCCCC1
pIC50 [1]: 7.68
pIC50 (TMD8): 5.74
inhibition at 20 µM [5]: 18.8%
inhibition [2]: 87.7%
inhibition [3]: 66.5%
inhibition at 20 µM (A549): 24.6%
pIC50 (MV4-11): 4.96
pIC50 [4]: 7.74
inhibition at 20 µM (HCT-116): 59.9%
inhibition at 20 µM (MDA-MB-435): 35.2%
pIC50 (K562): 5.06

Compound: Cc1cc(Nc2cn(C)nc2C#N)c(=O)n2c1C(=O)NC21CCCCC1
pIC50 [1]: < 6.30
inhibition [2]: 11.9%
inhibition [3]: 10.5%
pIC50 [4]: < 6.30

More lines, main results first:

pIC50 [1]: < 6.30
inhibition [2]: 18.9%
inhibition [3]: 22.4%
pIC50 [4]: < 6.30
Compound: Cc1cc(Nc2ncccn2)c(=O)n2c1C(=O)NC21CCCCC1

pIC50 [1]: < 6.30
inhibition [2]: 13.3%
inhibition [3]: 20.2%
pIC50 [4]: < 6.30
Compound: Cc1cc(Nc2cccnc2)c(=O)n2c1C(=O)NC21CCCCC1

pIC50 [1]: 6.33
inhibition [2]: 36.8%
inhibition [3]: 47.6%
pIC50 [4]: < 6.30
Compound: Cc1cc(Nc2cnccn2)c(=O)n2c1C(=O)NC21CCCCC1

pIC50 [1]: 7.98
inhibition [2]: 97.3%
inhibition [3]: 82.2%
pIC50 (MV4-11): < 4.70
pIC50 [4]: 8.08
pIC50 (K562): 4.85
Compound: Cc1cc(Nc2ccncn2)c(=O)n2c1C(=O)NC21CCCCC1
pIC50 (TMD8): 5.21
inhibition at 20 µM [5]: 48.3%
inhibition at 20 µM (A549): 40.5%
inhibition at 20 µM (HCT-116): 40.1%
inhibition at 20 µM (MDA-MB-435): 52.4%

pIC50 [1]: 6.62
inhibition [2]: 88.3%
inhibition [3]: 60.7%
pIC50 (MV4-11): < 4.70
pIC50 [4]: 6.86
pIC50 (K562): < 4.70
Compound: Cc1cc(Nc2ccncc2)c(=O)n2c1C(=O)NC21CCCCC1
pIC50 (TMD8): < 4.70
inhibition at 20 µM [5]: 24%
inhibition at 20 µM (A549): 23.1%
inhibition at 20 µM (HCT-116): 12.9%
inhibition at 20 µM (MDA-MB-435): 48.6%

pIC50 [1]: < 6.30
inhibition [2]: 30.2%
inhibition [3]: 33.2%
pIC50 [4]: < 6.30
Compound: Cc1cc(Nc2nccc(N)n2)c(=O)n2c1C(=O)NC21CCCCC1

pIC50 [1]: 6.80
inhibition [2]: 70.3%
inhibition [3]: 59.8%
pIC50 (MV4-11): 4.88
pIC50 [4]: 6.79
pIC50 (K562): < 4.70
Compound: Cc1cc(Nc2ccnnc2)c(=O)n2c1C(=O)NC21CCCCC1
pIC50 (TMD8): 5.06
inhibition at 20 µM [5]: 24.3%
inhibition at 20 µM (A549): 14%
inhibition at 20 µM (HCT-116): 22.7%
inhibition at 20 µM (MDA-MB-435): 33%
